These compounds were tested against T1, Human complement C1s enzyme (Homo sapiens, UniProt P09871) (assay: Human C1s enzyme assay). Conditions: human complement C1s enzyme 1.16 nM, substrate Z-L-Lys-SBzl, A405; read-out: IC50 (Stars).
T1 construct: purified from human serum, Complement Technology, Inc; purchased Complement Technology, Inc; host or cells: human serum (plasma-derived native protein)
T1 sequence (P09871 438-688 limits assumed): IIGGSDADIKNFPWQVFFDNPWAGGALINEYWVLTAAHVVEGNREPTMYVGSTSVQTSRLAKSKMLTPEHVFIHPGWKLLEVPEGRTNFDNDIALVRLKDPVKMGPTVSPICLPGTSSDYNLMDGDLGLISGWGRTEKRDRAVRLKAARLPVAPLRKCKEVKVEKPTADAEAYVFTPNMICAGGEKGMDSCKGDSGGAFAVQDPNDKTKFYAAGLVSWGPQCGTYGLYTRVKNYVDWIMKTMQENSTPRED
T1 sequence (P09871 16-437 partner limits assumed): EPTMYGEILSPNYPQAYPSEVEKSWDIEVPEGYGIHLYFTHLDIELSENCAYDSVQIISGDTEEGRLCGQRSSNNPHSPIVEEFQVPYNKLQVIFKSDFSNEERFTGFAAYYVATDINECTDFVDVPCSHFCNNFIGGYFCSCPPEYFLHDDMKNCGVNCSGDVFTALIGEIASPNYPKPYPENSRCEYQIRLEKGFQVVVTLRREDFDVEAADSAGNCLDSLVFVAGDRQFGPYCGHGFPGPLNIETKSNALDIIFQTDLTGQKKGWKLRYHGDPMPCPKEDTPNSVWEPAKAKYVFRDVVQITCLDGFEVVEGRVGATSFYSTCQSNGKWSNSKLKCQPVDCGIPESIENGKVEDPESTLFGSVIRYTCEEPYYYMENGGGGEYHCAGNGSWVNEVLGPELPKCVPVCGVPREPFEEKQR
Assay type: biochemical
Method in brief: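 Thioesterase activity followed colorimetrically (DTNB, A405, 30-s reads) using 100 μM Z-L-Lys-SBzl substrate. Enzyme, human serum-derived C1s at 1.16 nM final, was incubated with test compound for 5 min, room temperature, pH 7.5 Tris buffer with 1 M NaCl. Rate-versus-concentration data fitted by nonlinear regression for IC50.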

IC50 [nM]	SMILES
< 100	O=C(Cn1c(-c2ccccc2)ncc(NC(=O)Cc2ccc(Oc3ccccc3)cc2)c1=O)NCc1cc2cnccc2[nH]1 [Compound 38, N-((1H-pyrrolo[3,2-c]pyridin-2-yl)methyl)-2-(6-oxo-5-(2-(4-phenoxyphenyl)acetamido)-2-phenylpyrimidin-1(6H)-yl)-acetamide]
< 100	C[C@@H](Nc1cnc(-c2ccccc2)n(CC(=O)NCc2cc3cnccc3[nH]2)c1=O)c1ccc(Oc2ccccc2)cc1 [Compound 61, (R)—N-((1H-pyrrolo[3,2-c]pyridine-2-yl)methyl)-2-(6-oxo-5-((1-(4-phenoxyphenyl)ethyl)amino)-2-phenylpyrimidin-1(6H)-yl)acetamide]
< 100	C[C@@H](Nc1cnc(-c2ccc(O[C@@H]3CO[C@H]4[C@@H]3OC[C@H]4O)cc2)n(CC(=O)NCc2cc3cnccc3[nH]2)c1=O)c1ccc2oc3ccccc3c2c1 [Compound 377, N-((1H-pyrrolo[3,2-c]pyridine-2-yl)methyl)-2-(5-(((R)-1-(dibenzo[b,d]furan-2-yl)ethyl)amino)-2-(4-(((3R,3aR,6R,6aR)-6-hydroxyhexahydrofuro[3,2-b]furan-3-yl)oxy)phenyl)-6-oxopyrimidin-1(6H)-yl)acetamide]
< 100	O=C(Cn1c(-c2ccccc2)ncc(NC(=O)c2ncc(-c3ccccc3)[nH]2)c1=O)NCc1cc2cnccc2[nH]1 [Compound 169, N-(1-(2-(((1H-pyrrolo[3,2-c]pyridin-2-yl)methyl)amino)-2-oxoethyl)-6-oxo-2-phenyl-1,6-dihydropyrimidin-5-yl)-5-phen-yl-1H-imidazole-2-carbox-amide]
> 1000	C[C@@H](Nc1cnc(-c2ccccc2)n(CC(=O)NCc2cc(Cl)ccc2-n2cnnn2)c1=O)c1ccc2oc3ccccc3c2c1 [Compound 425, (R)-N-(5-chloro-2-(1H-tetra-zol-1-yl)benzyl)-2-(5-((1-(dibenzo[b,d]furan-2-yl)ethyl)-amino)-6-oxo-2-phenylpyrimi-din-1(6H)-yl)acetamide]
< 100	C[C@@H](Nc1cnc(N2CCOCC2)n(CC(=O)NCc2cc3cnccc3[nH]2)c1=O)c1ccc2oc3ccccc3c2c1 [Compound 344, (R)-N-((1H-pyrrolo[3,2-c]pyridin-2-yl)methyl)-2-(5-((1-(dibenzo[b,d]furan-2-yl)ethyl)-amino)-2-morpholino-6-oxo-pyrimidin-1(6H)-yl)acetamide]
< 100	O=C(Cn1c(-c2ccccc2)cnc(NC(=O)c2ccc3oc4ccccc4c3c2)c1=O)NCc1cc2cnccc2[nH]1 [Compound 101, N-(4-(2-(((1H-pyrrolo[3,2-c]pyridin-2-yl)methyl)amino)-2-oxoethyl)-3-oxo-5-phenyl-3,4-dihydropyrazin-2-yl)dibenzo [b,d]furan-2-carboxamide]
< 100	O=C(Cn1c(-c2ccccc2)ncc(NC(=O)c2ccc(-c3ccccc3F)cc2)c1=O)NCc1cc2cnccc2[nH]1 [Compound 214, N-(1-(2-(((1H-pyrrolo[3,2-c]pyridin-2-yl)methyl)amino)-2-oxoethyl)-6-oxo-2-phenyl-1,6-dihydropyrimidin-5-yl)-2′-fluoro-[1,1′-biphenyl]-4-carboxamide]
100 to 1000	C[C@@H](Nc1cnc(N2CCCC(O)C2)n(CC(=O)NCc2cc3cnccc3[nH]2)c1=O)c1ccc2oc3ccccc3c2c1 (stereo partly drawn) [Compound 370, N-((1H-pyrrolo[3,2-c]pyridin-2-yl)methyl)-2-(5-(((R)-1-(dibenzo[b,d]furan-2-yl)ethyl)-amino)-2-(3-hydroxypiperidin-1-yl)-6-oxopyrimidin-1(6H)-yl)acetamide]
< 100	O=C(Cn1c(-c2ccccc2)ncc(NCCNC(=O)c2ccc(Oc3ccccc3)cc2)c1=O)NCc1cc2cnccc2[nH]1 [Compound 33, N-(2-((1-(2-(((1H-pyrrolo[3,2-c]pyridin-2-yl)methyl)amino)-2-oxoethyl)-6-oxo-2-phenyl-1,6-dihydropyrimidin-5-yl)amino)ethyl)-4-phenoxybenzamide]
< 100	O=C(Cn1c(-c2ccccc2)ncc(NC(=O)Cc2ccccc2)c1=O)NCc1cc2cnccc2[nH]1 [Compound 24, N-((1H-pyrrolo[3,2-c]pyridin-2-yl)methyl)-2-(6-oxo-2-phen-yl-5-(2-phenylacetamido)pyr-imidin-1(6H)-yl)acetamide]
< 100	O=C(Cn1c(-c2ccc(N3CCOCC3)cc2)ncc(NCc2ccc3oc4ccccc4c3c2)c1=O)NCc1cc2cnccc2[nH]1 [Compound 216, N-((1H-pyrrolo[3,2-c]pyridin-2-yl)methyl)-2-(5-((dibenzo [b,d]furan-2-ylmethyl)amino)-2-(4-morpholinophenyl)-6-oxo-pyrimidin-1(6H)-yl)acetamide]
100 to 1000	O=C(Cn1cncc(NC(=O)c2csc(-c3ccccc3)n2)c1=O)NCc1cc2cnccc2[nH]1 [Compound 393, N-(1-(2-(((1H-pyrrolo[3,2-c]pyridin-2-yl)methyl)amino)-2-oxoethyl)-6-oxo-1,6-dihydro-pyrimidin-5-yl)-2-phenyl-thiazole-4-carboxamide]
< 100	O=C(Cn1c(-c2ccccc2)ncc(NCCCOc2ccccc2)c1=O)NCc1cc2cnccc2[nH]1 [Compound 7, N-((1H-pyrrolo[3,2-c]pyridin-2-yl)methyl)-2-(6-oxo-5-((3-phenoxypropyl)amino)-2-phenylpyrimidin-1(6H)-yl)-acetamide]
< 100	O=C(Cn1c(-c2ccc(Cl)cc2)ncc(NCc2ccc3oc4ccccc4c3c2)c1=O)NCc1cc2cnccc2[nH]1 [Compound 118, N-((1H-pyrrolo[3,2-c]pyridin-2-yl)methyl)-2-(2-(4-chloro-phenyl)-5-((dibenzo[b,d]furan-2-ylmethyl)amino)-6-oxopyr-imidin-1(6H)-yl)acetamide]
< 100	C[C@@H](Nc1cnc(-c2ccccc2F)n(CC(=O)NCc2cc3cnccc3[nH]2)c1=O)c1ccc(-c2ccccc2F)cc1 [Compound 308, (R)—N-((1H-pyrrolo[3,2-c]pyridine-2-yl)methyl)-2-(5-((1-(2′-fluoro-[1,1′-biphenyl]-4-yl)ethyl)amino)-2-(2-fluorophenyl)-6-oxopyrimidin-1(6H)-yl)acetamide]
< 100	C[C@@H](Nc1cnc(-c2ccccc2)n(CC(=O)NCc2cc3cnccc3[nH]2)c1=O)c1ccc2oc3ccccc3c2c1 [Compound 126, (R)-N-((1H-pyrrolo[3,2-c]pyr-idin-2-yl)methyl)-2-(5-((1-(dibenzo[b,d]furan-2-yl)ethyl)-amino)-6-oxo-2-phenylpyrimi-din-1(6H)-yl)acetamide]
< 100	Cc1ccc(F)c(-c2ncc(N[C@H](C)c3ccc4oc5ccccc5c4c3)c(=O)n2CC(=O)NCc2cc3cnccc3[nH]2)c1 [Compound 438, (R)-N-((1H-pyrrolo[3,2-c]pyridin-2-yl)methyl)-2-(5-((1-(dibenzo[b,d]furan-2-yl)ethyl)-amino)-2-(2-fluoro-5-methyl-phenyl)-6-oxopyrimidin-1(6H)-yl)acetamide]
< 100	CS(=O)(=O)c1ccc(-c2ncc(NCc3ccc4oc5ccccc5c4c3)c(=O)n2CC(=O)NCc2cc3cnccc3[nH]2)cc1 [Compound 134, N-((1H-pyrrolo[3,2-c]pyridin-2-yl)methyl)-2-(5-((dibenzo [b,d]furan-2-ylmethyl)amino)-2-(4-(methylsulfonyl)phenyl)-6-oxopyrimidin-1(6H)-yl)-acetamide]
100 to 1000	C[C@@H](Nc1cnc(N2CCn3c(nnc3C(F)(F)F)C2)n(CC(=O)NCc2cc3cnccc3[nH]2)c1=O)c1ccc2oc3ccccc3c2c1 [Compound 313, (R)-N-((1H-pyrrolo[3,2-c]pyridin-2-yl)methyl)-2-(5-((1-(dibenzo[b,d]furan-2-yl)ethyl)-amino)-6-oxo-2-(3-(trifluoro-methyl)-5,6-dihydro-[1,2,4]triazolo[4,3-a]pyrazin-7(8H)-yl)pyrimidin-1(6H)-yl)acet-amide]
< 100	O=C(Cn1c(-c2ccccc2)cnc(NCCCc2ccccc2)c1=O)NCc1cc2cnccc2[nH]1 [Compound 17, N-((1H-pyrrolo[3,2-c]pyridin-2-yl)methyl)-2-(2-oxo-6-phen-yl-3-((3-phenylpropyl)amino)-pyrazin-1(2H)-yl)acetamide]
< 100	O=C(Cn1c(-c2ccccc2)ncc(NCc2ccc(-c3ccccc3F)cc2)c1=O)NCc1cc2cnccc2[nH]1 [Compound 250, N-((1H-pyrrolo[3,2-c]pyridin-2-yl)methyl)-2-(5-(((2′-fluoro-[1,1′-biphenyl]-4-yl)methyl)amino)-6-oxo-2-phenylpyrimidin-1(6H)-yl)acetamide]
< 100	O=C(Cn1c(-c2ccccc2)cnc(NCc2ccc(-c3ccccc3)cc2)c1=O)NCc1cc2cnccc2[nH]1 [Compound 60, N-((1H-pyrrolo[3,2-c]pyridin-2-yl)methyl)-2-(3-(([1,1′-biphenyl]-4-ylmethyl)amino)-2-oxo-6-phenylpyrazin-1(2H)-yl)acetamide]

From patent US20260184707A1, “PHARMACEUTICAL COMPOUNDS FOR THE TREATMENT OF COMPLEMENT MEDIATED DISORDERS” (ALEXION PHARMACEUTICALS, INC., priority 2022, published 2026)
